Measured values from article PMC9737981, “Molecular Hybridization Strategy on the Design, Synthesis, and Structural Characterization of Ferrocene-N-acyl Hydrazones as Immunomodulatory Agents” (Molecules, 2022).

Legend:
peritoneal macrophages = assay: Cytotoxicity to peritoneal macrophages activated with LPS + IFNγ (Alamar Blue); assay type: cell-based, BALB/c mice
Protocol: The second set of experiments was performed using peritoneal macrophages activated with LPS (500 ng/mL, Sigma-Aldrich) and IFNγ (5 ng/mL; Sigma-Aldrich).
Peritoneal exudate macrophages were obtained by washing, with a cold DMEM medium, the peritoneal cavity of BALB/c mice 4–5 days after injection of 3% thioglycolate (Sigma-Aldrich) in saline (1.5 mL per mouse). Cells were seeded into 96-well plates at a cell density of 1 × 10^5 cells/well in a DMEM medium supplemented with 10% FBS and 50 µg/mL of gentamicin and incubated for 24 h at 37 °C and 5% CO2. […] At the end of treatment, 20 µL/well of Alamar Blue (Invitrogen) were added to the plates for 10 h. Colorimetric readings were performed at 570 and 600 nm using a SpectraMax 190 Microplate Reader (Molecular Devices, Sunnyvale, CA, USA).

nitrite production = assay: Nitrite production by activated peritoneal macrophages (Griess); assay type: cell-based, BALB/c mice; settings: LPS + IFN-γ
Protocol: (§1) Immortalized J774 macrophages (2 × 10^5 cells/well) or peritoneal macrophages (2 × 10^5 cells/well) were incubated in 96-well plates in a DMEM medium supplemented with 10% FBS and 50 µg/mL of gentamicin, in triplicate, stimulated or not with LPS (500 ng/mL) and IFN-γ (5 ng/mL), and treated or not with different concentrations of the evaluated ferrocenyl-N-acyl hydrazones. The cells were incubated for 4 or 24 h at 37 °C and 5% CO2. Cell-free supernatants were collected after 4 h (for TNFα measurement) and 24 h (for IL-1β, TNFα, and nitrite quantifications), and kept at −80 °C until use.
(§2) The dosage of cytokines IFN-γ, IL-1β, IL-2, IL-4, and TNFα was performed from the supernatant of peritoneal macrophages or splenocytes were determined by enzyme-linked immunosorbent assay (ELISA), using DuoSet kits from R&D Systems, according to the manufacturer’s instructions. Nitric oxide production was estimated in macrophage culture supernatants harvested at 24 h using the Griess method for nitrite quantification.

TNFα = TNFα production by peritoneal macrophages stimulated with LPS + IFN-γ (ELISA); assay type: cell-based, BALB/c mice
Protocol: as §1, §2

IL-2 = IL-2 production by splenocytes stimulated with concanavalin A (ELISA); assay type: cell-based, BALB/c mice; settings: Con A 5 µg/mL, 24 h
Protocol: (§3) BALB/c splenocyte suspensions were prepared in a DMEM medium supplemented with FBS and gentamicin. Splenocytes (5 × 10^6 cells/well) were plated in 24-well plates, in triplicate, and stimulated or not with concanavalin A (Con A; 5 µg/mL, Sigma-Aldrich). To evaluate lymphocyte function, splenocytes were activated in the absence or presence of various concentrations of SintMed149 and SintMed150 (10, 20, and 40 µM). After 24 h of treatment, cell-free supernatants were collected and kept at −80 °C until use.
as §2

IL-4 = IL-4 production by splenocytes stimulated with concanavalin A (ELISA); assay type: cell-based, BALB/c mice; settings: Con A 5 µg/mL, 24 h
Protocol: as §3, §2

nitric oxide production = assay: Inhibition of nitric oxide (nitrite) production in J774 macrophages stimulated with LPS + IFN-γ (Griess); assay type: cell-based; settings: for Inhibition of NO (%) Production at 40 μM: 24 h incubation with compounds and LPS plus IFN-γ
Protocol: as §1, §2

J774 macrophages = assay: Cytotoxicity to J774 macrophages (Alamar Blue); assay type: cell-based; settings: 72 h, read-out: CC50 (µM) JJ74
Protocol: (§4) J774 macrophages were seeded into 96-well plates at a cell density of 1 × 10^4 cells/well in a DMEM medium supplemented with 10% fetal bovine serum (FBS; GIBCO) and 50 µg/mL of gentamicin (Life Technologies, Carlsbad, CA, USA) and incubated for 24 h at 37 °C and 5% CO2. After that time, each compound was added in six concentrations (50–1.56 µM), in triplicate, and incubated for 72 h. At the end of treatment, 20 µL/well of Alamar Blue (Invitrogen) was added to the plates for 4 h. […]
(§5) As a positive control, gentian violet was used at concentrations ranging from 0.04 to 10 µM. CC50 values were calculated using data from three independent experiments.
(§6) To determine the cytotoxicity concentration of 50% of J774 macrophages (CC50), we used non-linear regression. One-way analysis of variance and Newman–Keuls multiple comparison tests were employed by using Graph Pad Prism version 8.0.1 (Graph Pad Software; San Diego, CA, USA). Differences were considered significant when the values of p were < 0.05. The data are representative of at least two or three experiments.

IL-1β = IL-1β production by peritoneal macrophages stimulated with LPS + IFN-γ (ELISA); assay type: cell-based, BALB/c mice
Protocol: as §1, §2

[1] = system: carrageenan-induced acute peritonitis; assay: Carrageenan-induced acute peritonitis (neutrophil migration); assay type: in vivo, BALB/c mice; settings: compared to vehicle
Protocol: Next, animals were challenged with a 250 μL injection of carrageenan (1 mg/mL; intraperitoneal route). After 4 h, animals were euthanized and peritoneal exudates were harvested by peritoneal lavage using 2.5 mL of saline solution. Cells were centrifuged at 400× g for 10 min, at 4 °C. The pellet was resuspended in saline (1 mL). Total leukocytes in the peritoneal fluid were determined in a Neubauer chamber after dilution in Trypan blue stain. Differential counting of neutrophils was carried out in rapid panotype-stained cytospin preparations. A differential count of 300 cells was made in a blinded fashion and according to standard morphologic criteria.

[2] = Acute toxicity in mice (single oral dose); assay type: in vivo, BALB/c mice; settings: for Changes in the eyes / Changes in the fur / Changes in the skin / Coma / Convulsions / Diarrhea / Lethargy / Salivation / Sleep / Tremors: observed daily for 14 days; for Mortality or signs of toxicity: 2 weeks
Protocol: Male BALB/c mice (6–8 weeks of age; n = 6/group) were randomized into three groups and treated orally with a single dose of SintMed150 (50 or 100 mg/kg) or vehicle (solution containing 30% sorbitol, 10 % Tween 80, and 60% saline). Animals were monitored for signs of general toxicity for 2 weeks after treatment. Observations involved changes in eyes, fur, and skin, and the occurrence of tremors, salivation, convulsions, diarrhea, sleep, lethargy, and coma. Body weights were taken and recorded at days 0, 7, and 14.

IFN-γ = IFN-γ production by splenocytes stimulated with concanavalin A (ELISA); assay type: cell-based, BALB/c mice; settings: Con A 5 µg/mL, 24 h
Protocol: as §3, §2

[3] = system: LPS-induced endotoxic shock; assay: LPS-induced endotoxin shock (survival); assay type: in vivo, BALB/c mice
Protocol: Groups of five male BALB/c mice (4 weeks of age) were used for the LPS lethality assays. Mice were treated with different doses of SintMed150 (50 or 100 mg/kg), dexamethasone (25 mg/kg), or vehicle (solution containing 30% sorbitol, 10% Tween 80, and 60% saline), by intraperitoneal (i.p.) route. Ninety minutes later, animals were challenged with 600 µg of LPS (from serotype 0111:B4 Escherichia coli, Sigma-Aldrich) in saline, by i.p. route. The survival rate was then monitored daily during 4 days.

[4] = Cytotoxicity to J774 macrophages (Alamar Blue); assay type: cell-based; settings: mouse, read-out: CC50 (µM) JJ74
Protocol: as §4, §5, §6

[5] = all concentrations tested (10, 20, 40 µM)
[6] = 10, 20 and 40 µM, 4 h, p < 0.05
[7] = 10, 20 and 40 µM, 24 h, p < 0.05

O=C(N/N=C/[c-]1cccc1)c1ccccc1Br.[Fe+2].c1cc[cH-]c1 [SintMed149, (E)-N′-(Ferrocenylmethylidene)-2-bromobenzohydrazide]
Cytotoxicity (cell viability) in peritoneal macrophages (peritoneal macrophages; [5]): not cytotoxic
Nitrite production (nitrite production; 10, 20 and 40 µM, p < 0.05): inhibited, in a concentration-dependent manner
TNF production (TNFα; [6]): inhibitory effect
IL-2 levels (IL-2; 10, 20, 40 µM): significant and concentration-dependent reduction
IL-4 levels (IL-4; 10, 20, 40 µM): did not significantly reduce
Inhibition of NO (%) Production at 40 μM (nitric oxide production): 71.7 (±3.6) %
CC50 (J774 macrophages): > 50 µM
IL-1β production (IL-1β; [7]): inhibitory effect

O=C(N/N=C/[c-]1cccc1)c1ccccc1Oc1ccccc1.[Fe+2].c1cc[cH-]c1 [SintMed150, (E)-N′-(Ferrocenylmethylidene)-2-phenoxybenzohydrazide]
Reduction in neutrophil migration ([1]; 100 mg/kg orally 24 and 1 h before carrageenan): 44.6%
Cytotoxicity (cell viability) in peritoneal macrophages (peritoneal macrophages; [5]): not cytotoxic
Changes in the eyes ([2]; 50 mg/kg single oral dose): No changes
Changes in the fur ([2]; 50 mg/kg single oral dose): No changes
Changes in the skin ([2]; 50 mg/kg single oral dose): No changes
Coma ([2]; 50 mg/kg single oral dose): Absent
Convulsions ([2]; 50 mg/kg single oral dose): Absent
Diarrhea ([2]; 50 mg/kg single oral dose): Absent
Lethargy ([2]; 50 mg/kg single oral dose): Absent
Salivation ([2]; 50 mg/kg single oral dose): Absent
Sleep ([2]; 50 mg/kg single oral dose): Usual
Tremors ([2]; 50 mg/kg single oral dose): Absent
Body weight ([2]; 50 mg/kg, day 0): 20.9 (±1.1)
Body weight ([2]; 50 mg/kg, day 7): 21.1 (±1.1)
Body weight ([2]; 50 mg/kg, day 14): 21.7 (±0.9)
Changes in the eyes ([2]; 100 mg/kg single oral dose): No changes
Changes in the fur ([2]; 100 mg/kg single oral dose): No changes
Changes in the skin ([2]; 100 mg/kg single oral dose): No changes
Coma ([2]; 100 mg/kg single oral dose): Absent
Convulsions ([2]; 100 mg/kg single oral dose): Absent
Diarrhea ([2]; 100 mg/kg single oral dose): Absent
Lethargy ([2]; 100 mg/kg single oral dose): Absent
Salivation ([2]; 100 mg/kg single oral dose): Absent
Sleep ([2]; 100 mg/kg single oral dose): Usual
Tremors ([2]; 100 mg/kg single oral dose): Absent
Body weight ([2]; 100 mg/kg, day 0): 20.1 (±0.8)
Body weight ([2]; 100 mg/kg, day 7): 20.4 (±0.7)
Body weight ([2]; 100 mg/kg, day 14): 21.0 (±0.7)
Mortality or signs of toxicity ([2]; single oral dose 50 mg/kg): did not cause mortality or the appearance of any sign of toxicity
Mortality or signs of toxicity ([2]; single oral dose 100 mg/kg): did not cause mortality or the appearance of any sign of toxicity
Body weight compared to vehicle-treated mice ([2]; single oral dose 50 or 100 mg/kg): no difference in body weight
Nitrite production (nitrite production; 10, 20 and 40 µM, p < 0.05): inhibited, in a concentration-dependent manner
TNF production (TNFα; [6]): inhibitory effect
IFN-γ levels (IFN-γ; 10, 20, 40 µM): performed the same feat
IL-2 levels (IL-2; 10, 20, 40 µM): significant and concentration-dependent reduction
Survival ([3]; 50 mg/kg, third day after lethal LPS): already died
Survival ([3]; 100 mg/kg, fourth day after lethal LPS, p < 0.05): 20%
Survival time in comparison with the vehicle group ([3]; 50 or 100 mg/kg, lethal LPS): longer survival time
IL-4 levels (IL-4; 10, 20, 40 µM): did not significantly reduce
Inhibition of NO (%) Production at 40 μM (nitric oxide production): 74.2 (±0.7) %
CC50 (J774 macrophages): > 50 µM
IL-1β production (IL-1β; [7]): inhibitory effect

C[C@@H]1C[C@H]2[C@@H]3CCC4=CC(=O)C=C[C@]4(C)[C@@]3(F)[C@@H](O)C[C@]2(C)[C@@]1(O)C(=O)CO [Dexamethasone, reference compound]
Reduction in neutrophil migration ([1]; 25 mg/kg): 55%
Cytotoxicity (cell viability) in peritoneal macrophages (peritoneal macrophages; 40 µM): not cytotoxic
Nitrite production (nitrite production; 10 µM): promoted the reduction
TNF production (TNFα; 10 µM): promoted the reduction
IFN-γ levels (IFN-γ; 10 µM): significantly reduced
IL-2 levels (IL-2; 10 µM): significantly reduced
Survival rate ([3]; 25 mg/kg, lethal LPS, monitored 4 days): 83.3%
IL-4 levels (IL-4; 10 µM): significantly reduced
inhibition at 40 µM (nitric oxide production; Mus musculus, J774, 24 h incubation with compounds and LPS plus IFN-γ, read-out: Inhibition of NO (%) Production at 40 μM): 64.9%
IL-1β production (IL-1β; 10 µM): promoted the reduction

CN(C)c1ccc(C(=C2C=CC(=[N+](C)C)C=C2)c2ccc(N(C)C)cc2)cc1 [GV, gentian violet, reference compound]
CC50 at 72 h [4]: 0.8 µM
